Series [1] can be described thus: Fluorescence emission and fluorescence quantum yield. It counts as physicochemical. Particulars: for Φf (fluorescence quantum yield): relative to magnesium tetra-tert-butylphthalocyanine in CHCl3, room temperature. An excerpt: (§1) The absorption bands of each photosensitiser are relatively insensitive to solvent changes with solutions in water/Cremophor resulting in a further bathochromic shift of ˜10 nm (Table 1). Excitation of chloroform solutions of the 2a and 4a at 635 nm gave a fluorescence band at 672 and 673 nm respectively (FIG. 2, Table 2). […] The reduction in fluorescence quantum yield in the series would imply more efficient population of the triplet excited state which would benefit singlet oxygen production. The ability of 2 and 4 to produce singlet oxygen would be a prerequisite to them being potential PDT agents.

Series [2] concerns MRC5 cells. The experiment in a line: Light/dark cytotoxicity study (MTT) in MRC5 cells. The format is cell-based. The method, then:
(§2) MRC5 and HeLa cell cultures were maintained in MEM (minimum essential medium) containing 10% (v/v) foetal calf serum (FCS), 1% (v/v) non-essential amino acids, 2 μg/ml Fungizone (Trade Mark) (amphotericin B), 50 μg/ml penicillin, 50 μg/ml streptomycin, 20 mM HEPES and 1% (v/v) L-Glutamine. Cells were passaged at least twice before use in the cytotoxicity assays.
(§3) Stock haematoporphyrin water-dimethyl sulphoxide (DMSO) (100:1 (v/v)) solutions were diluted with MEM containing 10% FCS. Cells were seeded at 5,000 cells/well in 96-well plates and incubated for 24 hr at 37° C. The 24 hour incubation period was chosen having regard to the slower uptake of haernatoporphyrin in the absence of Cremophor, when compared to the compounds of the present invention in the presence of Cremophor (see below). Cells were then incubated with haematoporphyrin in the dark for 24 hr at 37° C. The haematoporphyrin laden culture medium was then removed by filtration, the cells were washed with PBS and fresh culture medium was added to each well. A 500 W light source, passed through a red glass and water filter barrier, (to ensure cells are irradiated with light of wavelength greater than 570 nm) was used to irradiate the plates for both 15 and 30 min. Following irradiation, the cells were incubated for a further 48 hr at 37° C. before being assessed for cell survival.
(§4) Stock 2a or 2b water-Cremophor EL (Trade Mark—CAS 61791-12-6) (1:250 (v/v)) solutions were diluted with MEM containing 10% FCS. Cells were seeded at 5,000 cells/well in 96-well plates and incubated for 24 hr at 37° C. Cells were then incubated with 2a or 2b in the dark for 3 hr at 37° C. The 3 hour incubation period was chosen to reflect the faster cellular uptake of 2a or 2b in the presence of Cremophor, when compared to the cellular uptake of haematoporphyrins in the absence of Cremophor. The 2a or 2b laden culture medium was then removed by filtration, the cells were washed with PBS and fresh culture medium was added to each well. The plates were then irradiated using a 500 W light source passed through a red glass and water filter barrier, (thereby ensuring cells are irradiated with light of wavelength greater than 570 nm) for both 15 and 30 min.
(§5) Following irradiation, the cells were incubated for a further 48 hr at 37° C. before being assessed for cell survival. The dark toxicity of compounds of the present invention was also assessed in each experiment.
(§6) Cell viability was estimated using the standard MTT (microtiter tetrazolium) assay. This assay measures mitochondrial dehydrogenase activity and is based on the reduction of a soluble yellow tetrazolium salt to a blue, insoluble MTT formazan product by this enzyme. The subsequent colour change produced by viable cells was quantified using a plate reader (VICTOR^2 1420 multilabel HTS counter, Wallac). As mentioned above under the headings “Cytotoxicity”, the cells are incubated at 37° C. for 48 hours, following which the MTT solution was added to the cells at a final concentration of 0.5 mg/ml and incubated for 3 hr at 37° C. The MTT solution was then removed by filtration and 100 μl DMSO was added to each well in order to lyse the cells and release the formazan dye. The plates were read 1 hr later at 540 nm.
(§7) Prism (Trade Mark) […] was used to graph the data obtained from the MTT assays and the uptake/efflux experiments. This programme allows non-linear regression analysis and the generation of sigmoidal dose response curves. Prism (Trade Mark) also automatically calculates EC50 values.
(§8) Light toxicity assays were also carried out as described above under “Assay methods” in HeLa and MRC5 cells for haematoporphyrin (FIGS. 9 and 10), 2a (FIGS. 11 and 12) and 2b (FIGS. 13 and 14).

Series [3] can be described thus: Spectroscopic absorbance properties. The format is physicochemical.
Source text: as §1

Series [4] deals with HeLa cells. In words: Light/dark cytotoxicity study (MTT) in HeLa cells. The format is cell-based. The protocol: as §2, §3, §4, §5, §6, §7, §8
[5] abbreviates: CHCl3, room temperature, excitation at 635 nm.
The mark [6] stands for this setting: Water/Cremophor (100:1), room temperature.

Where two headings read alike, the source gives them in different places.

For orientation: EC50 means the concentration giving half of the maximal effect.

As for `COc1ccc(C2=[N+]3C(=Nc4c(-c5ccccc5)cc(-c5ccc(OC)cc5)n4[B-]3(F)F)C(c3ccccc3)=C2)cc1` [Compound 2b], the results for the “λ em (fluorescence band)” value in series [1] (setting [5]) and in series [1] (setting [6]) were 715 nm and 727 nm, respectively. For the same compound, the “Φf (fluorescence quantum yield)” value in series [1] worked out at 0.36. For the same compound, the “EC50 (dark toxicity)” value in series [2] (MRC5, 0 J/cm^2 light (no light)) was “un-measurable”. In addition, the EC50 in series [2] (MRC5, 8 J/cm^2 light (15 mins from a 500 W light source), read-out: EC50) was 220 µM; in series [2] (MRC5, 16 J/cm^2 light (30 mins from a 500 W light source), read-out: EC50), 22 µM; in series [4] (0 J/cm^2 light (no light), read-out: EC50 (dark toxicity)) it was 62 µM; in series [4] (8 J/cm^2 light (15 mins from a 500 W light source), read-out: EC50) it was 53 µM; in series [4] (16 J/cm^2 light (30 mins from a 500 W light source), read-out: EC50) it was 25 µM. Further, the “fwhm (full width at half maximum)” value in series [3] (CHCl3, room temperature) turned out to be 55 nm; in series [3] (setting [6]), 57 nm. Besides, the “ε (molar extinction coefficient)” value in series [3] (CHCl3, room temperature) is given as 85,000 M^−1cm^−1. Further, the “λmax (absorbance)” value in series [3] (CHCl3, room temperature) was determined as 688 nm; in series [3] (setting [6]), 696 nm.
With `F[B-]1(F)n2c(c(-c3ccccc3)c(Br)c2-c2ccccc2)N=C2C(c3ccccc3)=C(Br)C(c3ccccc3)=[N+]21` [Compound 4a], in series [1] (setting [5]), the “λ em (fluorescence band)” value came out at 673 nm. In series [1] (setting [6]), the “λ em (fluorescence band)” value came to 679 nm. Besides, the “Φf (fluorescence quantum yield)” value in series [1] came out at 0.012. Moreover, in series [3] (CHCl3, room temperature), the “fwhm (full width at half maximum)” value stood at 47 nm, the “ε (molar extinction coefficient)” value is 79,000 M^−1cm^−1 and the “λmax (absorbance)” value was 650 nm. In series [3] (setting [6]), the “fwhm (full width at half maximum)” value amounted to 57 nm and the “λmax (absorbance)” value is 651 nm.
`COc1ccc(C2=[N+]3C(=Nc4c(-c5ccccc5)c(Br)c(-c5ccc(OC)cc5)n4[B-]3(F)F)C(c3ccccc3)=C2Br)cc1` [Compound 4b]: the “λ em (fluorescence band)” value in series [1] (setting [5]) is listed as 714 nm. The “λ em (fluorescence band)” value in series [1] (setting [6]) turned out to be 719 nm. For the same compound, the “Φf (fluorescence quantum yield)” value in series [1] was 0.10. Also, in series [3] (CHCl3, room temperature), the “fwhm (full width at half maximum)” value was 57 nm, the “ε (molar extinction coefficient)” value is 75,000 M^−1cm^−1 and the “λmax (absorbance)” value is reported as 679 nm. In series [3] (setting [6]), the “fwhm (full width at half maximum)” value came to 86 nm and the “λmax (absorbance)” value is 685 nm.
`F[B-]1(F)n2c(-c3ccccc3)cc(-c3ccc(Br)cc3)c2N=C2C(c3ccc(Br)cc3)=CC(c3ccccc3)=[N+]21` [Compound 5a]: the “λ em (fluorescence band)” value in series [1] (setting [5]) came to 680 nm. Moreover, in series [3] (CHCl3, room temperature), the “ε (molar extinction coefficient)” value is 74,000 M^−1cm^−1 and the “λmax (absorbance)” value is 658 nm. In addition, the “λmax (absorbance)” value in series [3] (setting [6]) worked out at 667 nm.
Consider `CC1=C(CCC(=O)O)c2cc3[nH]c(cc4nc(cc5[nH]c(cc1n2)c(C)c5C(C)O)C(C)=C4C(C)O)c(C)c3CCC(=O)O` (stereo not shown) [haematoporphyrin, reference compound], for which the EC50 in series [2] (Homo sapiens, light or radiation study, 0.25 h, MRC5, 8 J/cm^2 light (15 mins from a 500 W light source), read-out: EC50) came out at 42 µM; in series [2] (Homo sapiens, light or radiation study, 0.5 h, MRC5, 16 J/cm^2 light (30 mins from a 500 W light source), read-out: EC50), 29 µM; in series [2] (Homo sapiens, light or radiation study, MRC5, 0 J/cm^2 light (no light), read-out: EC50 (dark toxicity)) it was 1400 µM; in series [4] (Homo sapiens, light or radiation study, 0 J/cm^2 light (no light), read-out: EC50 (dark toxicity)) it was 77 µM; in series [4] (Homo sapiens, light or radiation study, 0.25 h, 8 J/cm^2 light (15 mins from a 500 W light source), read-out: EC50), 15 µM; in series [4] (Homo sapiens, light or radiation study, 0.5 h, 16 J/cm^2 light (30 mins from a 500 W light source), read-out: EC50), 16 µM.
